Laboratory results from US20200281897A1, “INDAZOLE DERIVATIVES FOR CANCER TREATMENT” (Servicio Andaluz de Salud, priority 2016, published 2020).
pIC50: −log10 of the molar value.

Assays:
[1] = test system: granulomonocytes (CD64+) and lymphocytes (CD45+); test: Ex vivo viability of normal cell subpopulations of patient bone marrow by flow cytometry; format: cell-based, human
Procedure: In vitro studies were carried out using six different human MM cell lines, U266, RPMI8226, MM1S, MM1R, U266-LR7, and RPMI-LR5. For ex vivo assays, human primary cells from healthy donors and MM patients were used (Table 1). Human MM cell lines U266, RPMI8226, and MM1.S were acquired from ATCC and lines U266-LR7, RPMI-LR5, and MM1.R were kindly provided by Dr. Enrique Ocio (Hospital Universitario de Salamanca, Spain). The primary cells were obtained from bone marrow (BM) aspirates or peripheral blood (PB) samples, and the peripheral blood mononuclear cells (PBMCs) were isolated by Ficoll-Hypaque centrifugation and washed twice in phosphate buffered saline (PBS) containing 1% BSA. […]
The cell viability of the MM cell lines and primary cells from healthy PB donors was also evaluated by flow cytometry using 7-AAD/Annexin V. Patient bone marrow (BM) cells were analyzed using 7-AAD with a combination of monoclonal antibodies against myeloma-associated antigens (anti-CD56-APC, anti-CD45-Pacific Blue, and anti-CD38-APC-H7 [BD Biosciences]) and antibodies for distinguishing the granulomonocytic population (anti-CD64-FITC) and lymphocytic population (anti-CD45-Pacific Blue). The cells were acquired by means of FACSCanto II flow cytometer (BD Biosciences) and analyzed using Infinicyt™ Software (Cytognos, Spain).

[2] = test system: KG-1; test: WST-1 cell viability assay, KG-1; format: cell-based, human; conditions: KG-1, 18 hours
Procedure: (§1) U937, NB-4, KG-1, and MOLM-13 (DMSZ, Braunschweig, Germany) were cultured in complete RPMI 1640 medium (with 2 mM of L-glutamine, 100 mg of penicillin, 100 μg/ml of streptomycin, and with 10% FBS), supplemented with 10 mM HEPES, 1×NaPuvuvato, and 1× non-essential amino acids.
(§2) The cell lines and primary cells were cultured in 96-well plates (5×10e5 cells per well) with the addition of the indicated concentrations of WIN 55,212-2 or PGN cannabinoids in DMSO or with the solvent only in triplicate at 18, 48, and 72 hours. Caspase inhibitor Z-VAD (OMe)-FMK or the CB2 receptor antagonist PGN-8, -37, and -70, together with the cannabinoid WIN-55,212-2, were also added. Cell viability was determined by means of the WST-1 assay [2-(4-iodophenyl)-3-(4-nitrophenyl)-5-(2,4-disulfophenyl)-2H-tetrazolium] according to the manufacturer's instructions (Dojindo Molecular Technologies). Optical densities were measured at 450 nm using a Multiskan™ Go Microplate plate reader (Thermo Fisher Scientific, Waltham, Mass., USA).
(§3) Now it will be analyzed whether the exposure to cannabinoids had any effect on the viability of the tumor cells in vitro. […]

[3] = test system: MM1S; test: MTT cell viability assay, myeloma cell line MM1S; format: cell-based, human; conditions: MM1S, MTT, 18 hours, doses 0-50 μM; read-out: IC50, cell viability
Procedure: (§4) In vitro studies were carried out using six different human MM cell lines, U266, RPMI8226, MM1S, MM1R, U266-LR7, and RPMI-LR5. For ex vivo assays, human primary cells from healthy donors and MM patients were used (Table 1). Human MM cell lines U266, RPMI8226, and MM1.S were acquired from ATCC and lines U266-LR7, RPMI-LR5, and MM1.R were kindly provided by Dr. Enrique Ocio (Hospital Universitario de Salamanca, Spain). The primary cells were obtained from bone marrow (BM) aspirates or peripheral blood (PB) samples, and the peripheral blood mononuclear cells (PBMCs) were isolated by Ficoll-Hypaque centrifugation and washed twice in phosphate buffered saline (PBS) containing 1% BSA. Hematopoietic stem cells and B and T lymphocytes were isolated from healthy PB donors by positive immunomagnetic separation using human MACS CD34+, CD19+, and CD3+ microbeads, respectively. MM plasma cells were obtained from the bone marrow (BM) of patients with an infiltration of cells of more than 30% (Table 1). The MM plasma cells were identified using CD138+, and were then distinguished from the other cell populations by flow cytometry using a suitable combination of antibodies: anti-human CD64-FITC, CD34-PE, CD56-APC, CD38-APC-H7, and CD45-Pacific Blue antibodies (BD Biosciences, San Jose, Calif.). All the cell lines were cultured in RPMI-1640 supplemented with 10% fetal bovine serum (FBS) and 1% penicillin/streptomycin, as recommended by the supplier. For human primary cells, the concentration of FBS was up to 20%.
(§5) The MM cell lines and primary cells were exposed to different doses of indazole compounds, and viability was evaluated at 18, 48, and 72 hours. Pretreatments with the ceramide synthesis inhibitor (FB1), pan-caspase (ZVAD-FMK), and CB antagonists (PGN-8, PGN-37, and PGN-70) were performed for 30 minutes, and then the cells were incubated with indazole compound WIN-55 up to 18 hours. Cell viability was determined using the MTT assay Cell Counting Kit-8 (Dojindo, Kumamoto, Japan) according to the manufacturer's instructions.

[4] = test system: RPMI8226; test: MTT cell viability assay, myeloma cell line RPMI; format: cell-based, human; conditions: RPMI, MTT, 18 hours, doses 0-50 μM; read-out: IC50, cell viability
Procedure: as §4, §5

[5] = test system: NB-4; test: WST-1 cell viability assay, NB-4; format: cell-based, human; conditions: NB-4, 18 hours
Procedure: as §1, §2, §3

[6] = test system: HL60; test: Mitochondrial damage and ER stress in HL60 cells; format: cell-based, human; conditions: HL60, 50 μM, 15 and 30 minutes
Procedure: The controls that are untreated and the cells (10^6 cells per assay) treated with WIN-55,212-2 (50 μM) for 15 and 30 minutes at 37° C. were stained with 5 μM MitoSOX probe [Molecular Probes (Invitrogen)] to detect the mitochondrial superoxide. The MitoSOX signal was detected by flow cytometry.
The detailed methodology for analyzing mitochondrial membrane potential (APm), Western Blot analysis, and immunocytofluorescence analysis has been described elsewhere 29

[7] = test system: HL60 cells; test: Murine model of AML (HL60 in NSG mice); format: in vivo; conditions: 5 mg/kg/day
Excerpt: The NOD/scid/IL-2R gammae null (NSG) mice were acquired from Charles River Laboratories International (L'Arbresle, France) and received food and water ad libitum, under specific pathogen-free conditions. When the mice were 8-12 weeks old, AML was induced by intravenous inoculation of the HL60 cell line, and the mice were monitored to confirm progression of the disease by means of studying weight loss and detecting human CD45+ cells in bone marrow BM aspirates and flow cytometry analysis. Once the presence of leukemia cells was confirmed, treatment with a vehicle, WIN-55 212 cannabinoid was administered at a dose of 5 mg/kg/day or cytarabine (ARA-C) at 50 mg/kg for 5 days.

In the case of CS(=O)(=O)O.Cc1c(C(=O)c2cccc3ccccc23)c2cccc3c2n1[C@H](CN1CCOCC1)CO3 [WIN-55, (R)-(+)-[2,3-dihydro-5-methyl-3-(4-morpholinomethyl)-pyrrolo[1,2,3]-1,4-benzoxazin-6-yl]-1-naphthalenylmethanone mesylate], the “cell viability of normal cell subpopulations from patient bone marrow” value ([1]; granulomonocytes (CD64+) and lymphocytes (CD45+), 0-50 μM, 18 hours) was “barely affected”, the “effect on the lymphocyte population (CD45+)” value ([1]; highest dose tested, 50 μM) was “induced an antiproliferative effect” and the “% viable cells at 50 μM” value [2] was 57.4%. The pIC50 [2] was 4.48, the pIC50 [3] was 4.87 and the pIC50 [4] was 4.93. For the same compound, the “% viable cells at 50 μM” value [5] was 49.1%, the pIC50 [5] was 4.60 and the “mitochondrial damage and ER stress” value [6] was “early mitochondrial damage and ER stress”. For the same compound, the “number of HL60 cells in bone marrow” value [7] was “vast reduction” and the survival ([7]; versus control group and ARA-C group) was “significant increase in survival”.
